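Five concentrations, 48 hours, 96-well plates. GI50 = concentration required for 50% inhibition of growth. TGI is the concentration that stops growth completely.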
Experiments:
Test in all cases: NCI-60 cell line screen, 48 h
UO-31 renal = system: UO-31 renal
NCI-H522 lung = system: NCI-H522 lung
UACC-62 melanoma = system: UACC-62 melanoma
HCT-15 colon = system: HCT-15 colon
EKVX NSCLC = system: EKVX NSCLC
OVCAR-3 ovarian = system: OVCAR-3 ovarian
NCI-H460 lung = system: NCI-H460 lung
SN12C renal = system: SN12C renal
MOLT-4 leukemia = system: MOLT-4 leukemia
K-562 leukemia = system: K-562 leukemia

SMILES	TGI (UO-31 renal)	TGI (NCI-H522 lung)	TGI (UACC-62 melanoma)	TGI (HCT-15 colon)	TGI (EKVX NSCLC)	TGI (OVCAR-3 ovarian)	TGI (NCI-H460 lung)	TGI (SN12C renal)	TGI (MOLT-4 leukemia)	TGI (K-562 leukemia)	GI50 (UO-31 renal)	GI50 (NCI-H522 lung)	GI50 (UACC-62 melanoma)	GI50 (HCT-15 colon)	GI50 (EKVX NSCLC)	GI50 (OVCAR-3 ovarian)	GI50 (NCI-H460 lung)	GI50 (SN12C renal)	GI50 (MOLT-4 leukemia)	GI50 (K-562 leukemia)
COc1cc2c(c(O)c1C)C(=O)C(Cl)=CC2=O	21.6 µM	5.24 µM	13.8 µM	27.6 µM	23.3 µM	24.3 µM	63.3 µM	27.6 µM	8.66 µM	8.64 µM	–	–	–	–	–	–	–	–	–	–
Fc1ccc(-c2nn(-c3ccccc3)cc2-c2nc3ccccc3o2)cc1	35.1 µM	16.8 µM	19.6 µM	39 µM	90.6 µM	48.7 µM	9.95 µM	33.5 µM	> 100 µM	> 100 µM	1.67 µM	3.62 µM	5.5 µM	1.83 µM	5.29 µM	2.87 µM	2.84 µM	6.15 µM	3.62 µM	1.25 µM
O=C1c2ccccc2-c2c1c1cc3c(cc1c(=O)n2CCCCl)OCO3	> 100 µM	> 100 µM	> 100 µM	> 100 µM	> 100 µM	32 µM	> 100 µM	77.6 µM	> 100 µM	> 100 µM	> 100 µM	16.8 µM	30.5 µM	> 100 µM	> 100 µM	11.4 µM	97.1 µM	21.8 µM	35 µM	99.8 µM
OCc1c(-c2cccc3ccccc23)sc(-c2cccc3ccccc23)c1CO	23.7 µM	22.9 µM	23.5 µM	27.9 µM	25 µM	26.5 µM	34.7 µM	26.8 µM	42.2 µM	31.3 µM	–	–	–	–	–	–	–	–	–	–
O=[N+]([O-])c1ccc(NSc2ccccc2)cc1	> 100 µM	39.4 µM	55.7 µM	> 100 µM	90.1 µM	> 100 µM	> 100 µM	35.5 µM	49.4 µM	> 100 µM	–	–	–	–	–	–	–	–	–	–
CC1=C(CCCOC(=O)NCCCl)C2=C(C)C3(CC3)[C@@](C)(O)C(=O)C2=C1	5.76 µM	21.4 µM	4.96 µM	> 100 µM	> 100 µM	9.9 µM	13.6 µM	> 100 µM	> 100 µM	> 100 µM	2.02 µM	3.99 µM	2.02 µM	2.84 µM	3.45 µM	2.95 µM	2.42 µM	3.84 µM	5.49 µM	23 µM
CN1CCN(Cc2ccc(NC(=O)c3cncc(C#Cc4cnc(N)c5ccccc45)c3)cc2C(F)(F)F)CC1	0.869 µM	0.967 µM	1.16 µM	0.534 µM	0.974 µM	0.967 µM	0.581 µM	0.693 µM	1.16 µM	0.524 µM	0.436 µM	0.367 µM	0.587 µM	0.124 µM	0.413 µM	0.41 µM	0.158 µM	0.242 µM	0.164 µM	0.00333 µM
CN(C)c1ccc(/C=C2\C[N+](C)(C)C/C(=C\c3ccc(N(C)C)cc3)C2=O)cc1	> 100 µM	26.2 µM	30.6 µM	> 100 µM	> 100 µM	17.2 µM	> 59 µM	> 78 µM	59.3 µM	31.3 µM	–	–	–	–	–	–	–	–	–	–
CCCCCCCCCCCCOC1C(CNCC2OC3OC(C)(C)OC3C2NC(=O)Nc2ccc(C(=O)OCC)cc2)OC2OC(C)(C)OC21 (stereo not given)	13.8 µM	3.78 µM	12.2 µM	6.14 µM	18.9 µM	11.5 µM	3.87 µM	3.74 µM	8.43 µM	> 100 µM	3.96 µM	2.04 µM	3.39 µM	2.46 µM	6.08 µM	3.41 µM	2 µM	1.96 µM	3.39 µM	2.95 µM
CN1CCCNCCN(CCc2ccccn2)CCCN(C)CC1	> 100 µM	> 100 µM	> 100 µM	> 62.6 µM	> 100 µM	> 100 µM	> 100 µM	> 100 µM	> 100 µM	> 66.1 µM	–	–	–	–	–	–	–	–	–	–
COC(=O)c1c2c(c(C)[n+]([O-])c1C)C(=O)C=CC2=O	3.39 µM	3.67 µM	3.21 µM	3.31 µM	5.12 µM	1.05 µM	7.4 µM	3.1 µM	4.65 µM	36 µM	1.69 µM	1.66 µM	1.63 µM	1.43 µM	2.02 µM	0.314 µM	2.72 µM	1.62 µM	1.69 µM	3.04 µM
S=C1NCCN1C1=Nc2ccccc2CO1	> 100 µM	> 100 µM	> 100 µM	> 100 µM	> 100 µM	> 100 µM	> 100 µM	> 100 µM	> 100 µM	> 100 µM	> 100 µM	> 100 µM	> 100 µM	> 100 µM	93.6 µM	> 100 µM	> 100 µM	> 100 µM	> 100 µM	> 100 µM
COc1cccc(-c2nc(-c3cnccn3)n(Cc3ccccc3)n2)c1	> 100 µM	> 100 µM	> 100 µM	> 100 µM	> 100 µM	> 100 µM	> 100 µM	> 100 µM	> 100 µM	> 100 µM	–	–	–	–	–	–	–	–	–	–
COc1cccc(-c2nn(-c3ccccc3)cc2-c2ccnc(NCCCNS(=O)(=O)c3cccc(F)c3)c2)c1	> 100 µM	21.2 µM	> 100 µM	> 100 µM	> 100 µM	> 100 µM	> 100 µM	> 100 µM	8 µM	> 100 µM	1.87 µM	2.05 µM	4.65 µM	2.89 µM	2.79 µM	4.88 µM	4.93 µM	5.37 µM	2.64 µM	3.31 µM
CCOc1ccc2nc(NC(=O)/C(CC(=O)CC(C3=C(O)c4ccccc4CC3=O)c3ccccc3)=N\O)sc2c1 (stereo not given)	> 100 µM	> 100 µM	> 100 µM	> 100 µM	> 100 µM	> 100 µM	> 100 µM	> 100 µM	> 100 µM	> 100 µM	–	–	–	–	–	–	–	–	–	–
